# Data: US10149890B2 (priority 2010, dated 2018)
# Values joined by “and” are separate entries in the source; they are usually repeats but may differ in a detail not shown here. Equal entries are not always repeated.
# Columns and labels:
# [1] = test system: influenza virus strain A/FPV/Rostock/34; set-up: species or system chickens; conditions: in vivo
# [2] = test system: human immunodeficiency virus HIV-1 (LAI); format: cell-based; conditions: 0.01 mg/ml
# [3] = test system: human immunodeficiency virus HIV-1 (LAI); format: cell-based
# [4] = test system: clinical isolates of MRSA and MSSA, Staphylococcus aureus ATCC 43300 and ATCC 29213; format: cell-based; conditions: for MIC of the antibiotic alone: before combination with FS-1
structure (smiles),measurement,setting,value
CC(N)C12CC3CC(CC(C3)C1)C2 (stereo not shown) [Rimantadine],Number of chickens that died,[1],10 and 8
same,Number of survived chickens,[1],4 and 6
same,Survival %,[1],28.6 ± 12.53% and 42.9 ± 13.73%
Cc1cn([C@H]2C[C@H](N=[N+]=[N-])[C@@H](CO)O2)c(=O)[nH]c1=O [azidothymidine],Decrease of reverse transcriptase content compared with negative control,[2],5 times
same,Extinction factor (reverse transcriptase),[2],0.5724 ± 0.005464
same,Extinction factor (p24),[3]; 0.01 mg/ml,0.0446 ± 0.003187
same,Decrease of p24 protein compared to placebo,"[3]; FS-1 0.188 and 0.094 mg/ml, azidothymidine 0.01 mg/ml",60 times
Cn1nnnc1SCC1=C(C(=O)O)N2C(=O)[C@@H](NC(=O)[C@H](O)c3ccccc3)[C@H]2SC1 [cefamandole],MIC of the antibiotic in combination with FS-1,[4],8 µg/mL
same,MIC of the antibiotic alone,[4],64 µg/mL
CCC[C@@H]1C[C@@H](C(=O)N[C@@H]([C@H]2O[C@H](SC)[C@H](O)[C@@H](O)[C@H]2O)[C@@H](C)O)N(C)C1 [lincomycin],MIC of the antibiotic in combination with FS-1,[4],8 µg/mL
same,MIC of the antibiotic alone,[4],64 µg/mL
Cc1onc(-c2ccccc2)c1C(=O)N[C@@H]1C(=O)N2[C@@H]1SC(C)(C)[C@@H]2C(=O)O [oxacillin],MIC of the antibiotic in combination with FS-1,[4],64 µg/mL
same,MIC of the antibiotic alone,[4],256 µg/mL
